According to patent publication US6281344A, “Nucleic acid-protein fusion molecules and libraries” (priority 1999, dated 2001):

Columns and labels:
[1] = system: ribosome (eukaryotic peptidyl transferase / translocation) in reticulocyte lysate translation extract; assay: RNA-peptide fusion formation (35S Met template labeling) with the long myc template in reticulocyte lysate translation extract, effect of inhibitors; assay type: biochemical, rabbit; details: long myc template (LP154), inhibitor concentration not given, 60 min
Excerpt: To confirm that the template labeling by ^35 S Met was a consequence of translation, and more specifically resulted from the peptidyl transferase activity of the ribosome, the effect of various inhibitors on the labeling reaction was examined. The specific inhibitors of eukaryotic peptidyl transferase, anisomycin, gougerotin, and sparsomycin (Vazquez, Inhibitors of Protein Biosynthesis (Springer-Verlag, N.Y.), pp. 312 (1979)), as well as the translocation inhibitors cycloheximide and emetine (Vazquez, Inhibitors of Protein Biosynthesis (Springer-Verlag, N.Y.), pp. 312 (1979)) all decreased RNA-peptide fusion formation by ~95% using the long myc template and a reticulocyte lysate translation extract.
Reticulocyte Translation Reactions. Translation reactions were performed either with purchased kits (Novagen, Madison, Wis.) or using extract prepared according to published protocols (Jackson and Hunt, Meth. Enzymol. 96:50 (1983)). Reticulocyte-rich blood was obtained from Pel-Freez Biologicals (Rogers, […].). In both cases, the reaction conditions were those recommended for use with Red Nova Lysate (Novagen). Reactions consisted of 100 mM KCl, 0.5 mM MgOAc, 2 mM DTT, 20 mM HEPES pH 7.6, 8 mM creatine phosphate, 25 µM in each amino acid (with the exception of methionine if ^35 S Met was used), and 40% v/v of lysate. Incubation was at 30° C. for 1 hour. Template concentrations depended on the experiment but generally ranged from 50 nM to 1 μM with the exception of 43-P (FIG. 6H) which was 4 μM.

ribosome A site = details: binding the A site, accepting the growing peptide chain, and falling off the ribosome; cited from earlier work

| Structure (SMILES) | decrease of RNA-peptide fusion formation [1] | Kd (ribosome A site) [µM] |
| --- | --- | --- |
| CSC[S@+]([O-])C[C@H](CO)NC(=O)/C=C/c1c(C)[nH]c(=O)[nH]c1=O [sparsomycin] | ~ 95% | – |
| COc1ccc(C[C@H]2NC[C@H](O)[C@H]2OC(C)=O)cc1 [anisomycin] | ~ 95% | – |
| CNCC(=O)NC(CO)C(=O)NC1C(C(N)=O)OC(n2ccc(N)nc2=O)C(O)C1O (stereo not drawn) [gougerotin] | ~ 95% | – |
| COc1ccc(C[C@H](N)C(=O)N[C@H]2[C@@H](O)[C@H](n3cnc4c(N(C)C)ncnc43)O[C@@H]2CO)cc1 [puromycin] | – | 100 |
| CC[C@H]1CN2CCc3cc(OC)c(OC)cc3[C@@H]2C[C@@H]1C[C@H]1NCCc2cc(OC)c(OC)cc21 [emetine] | ~ 95% | – |
| C[C@@H]1C[C@@H]([C@H](O)CC2CC(=O)NC(=O)C2)C(=O)[C@@H](C)C1 [cycloheximide] | ~ 95% | – |
